[C(1O2)] = PNA monomer with modified cytosine nucleobase C(1O2); [A(5)] = PNA monomer with modified adenine nucleobase A(5); [G(6)] = PNA monomer with modified guanine nucleobase G(6); {Fethoc} = Fethoc N-terminal cap of the PNA; {NH2} = C-terminal amide of the PNA
Experiments:
Type in all cases: cell-based
human TYR mRNA = assay: Nested qPCR for TYR mRNA in human primary epidermal melanocytes; conditions: 1 zM to 10 aM, 5 hours, significant at 1 zM and 10 aM
Method: “ASO 1” was evaluated by TYR nested qPCR for its ability to induce changes in the TYR mRNA level in human primary epidermal melanocytes as follows.
[Cell Culture & ASO Treatment] Primary epidermal melanocytes (Cat. Number PCS-200-013, ATCC) cells were maintained in Dermal Cell Basal Medium (Cat Number PCS-200-030, ATCC) supplemented with Adult Melanocyte Growth Kit Component (Cat. Number PCS-200-042, ATCC). Melanocytes grown in 60 mm culture dish containing 5 mL culture medium were treated with “ASO 1” at 0 zM (negative control), 1 zM, 100 zM, or 10 aM. (3 culture dishes per concentration)
[RNA Extraction & cDNA Synthesis by One-step PCR] Following an incubation with “ASO 1” for 5 hours, total RNA was extracted using “RNeasy Mini Kit” (Cat. Number 74106, Qiagen) according to the manufacturer's instructions. 200 ng of RNA template was subjected to a 25 μL reverse transcription reaction using Super Script® One-Step RT-PCR kit with Platinum® Taq polymerase (Cat. No. 10928-042, Invitrogen) against a set of exon-specific primers of [exon 1_forward(2): (5′→3′) CTCTTTGTCTGGATGCATT; and exon 5_reverse: (5′→3′) CTGTGGTAATCCTCTTTCT] according to the following cycle conditions specified: 50° C., for 30 min and 94° C. for 2 min, which was followed by 15 cycles of 30 sec at 94° C., 30 sec at 50° C., and 1 min at 72° C.
(§1) [Nested PCR Amplification] […]

mouse TYR mRNA = assay: Nested qPCR for TYR mRNA in B16F10 mouse melanoma cells; conditions: 1 to 1,000 aM, 5 hours, normalized to no treatment, significant
Method: “ASO 1M” was evaluated by TYR nested qPCR for its ability to induce changes in the mouse TYR mRNA level in B16F10 cells as described below.
[Cell Culture & ASO Treatment] B16F10 cells grown in 60 mm culture dish containing 5 mL DMEM were treated with “ASO 1M” at 0 (negative control), 1, 10,100 or 1000 aM. (2 culture dishes per dose)
[RNA Extraction & cDNA Synthesis by One-step PCR] Following an incubation with “ASO 1M” for 5 hours, total RNA was extracted from cells using “Universal RNA Extraction Kit” (Cat. No. 9767, Takara) according to the manufacturer's instructions. 200 ng of RNA template were used for a 25 μl reverse transcription reaction using One Step RT-PCR kit (Invitrogen, USA) against a set of exon specific primers of [exon 1_forward: (5′→3′) GTAAGTTTGGATTTGGGG; and exon 4_reverse: (5′→3′) AGAGCGGTATGAAAGGAA] according to the following cycle conditions: 50° C. for 30 min and 94° C. for 2 min, followed by 15 cycles of 30 sec at 94° C., 30 sec at 52° C., and 40 sec at. 72° C.
[Nested qPCR Amplification] The cDNA solutions were diluted by 100 times, and 1 μl of each diluted PCR product was subjected to a 20 μl Real-Time PCR reaction with a Taqman probe set spanning the junction of exon 2 and exon 3 (Cat. No. Mm00495818_m1, Thermo Fisher Scientific) according to the following cycle conditions: 95° C. for 3 min followed by 30 cycles 10 sec at 95° C., and 30 sec at 60° C. […]

mouse TYR pre-mRNA = assay: Exon skipping by nested PCR in B16F10 mouse melanoma cells; conditions: 1 to 1,000 aM, 5 hours, untreated cells gave full-length and exons 2-3 skipped bands
Method: [Cell Culture & ASO Treatment] B16F10 mouse melanoma cells (Cat. Number CRL-6475, ATCC) were maintained in DMEM (Dulbecco's modified Eagle's essential minimum medium) supplemented with 10% FBS, 1% streptomycin/penicillin, and 0.01 mg/ml bovine insulin. B16F10 cells grown in 60 mm culture dish containing 5 mL DMEM were incubated for 5 hours with “ASO 1M” at 0 (negative control), 1, 10,100 or 1000 aM.
[RNA Extraction & cDNA Synthesis by One-step PCR] Following an incubation for 5 hours, total RNA was extracted using “Universal RNA Extraction Kit” (Cat. Number 9767, Takara) according to the manufacturer's instructions. 200 ng of RNA template was used for a 25 μl reverse transcription reaction using Super Script® One-Step RT-PCR kit with Platinum® Taq polymerase (Cat. No. 10928-042, Invitrogen) against a set of exon-specific primers of [exon1_forward: (5′→3′) GTAAGTTTGGATTTGGGG; and exon 4_reverse: (5′→3′) AGAGC-GGTATGAAAGGAA] according to the following cycle conditions: 50° C. for 30 min and 94° C. for 2 min, followed by 15 cycles of 30 sec at 94° C. 30 sec at 52° C. and 40 sec at 72° C.
as §1
[Identification of Exon Skipping Products] […] The hands of target size were collected and analyzed by Sanger Sequencing.

TYR protein = TYR protein expression by western blot in B16F10 mouse melanoma cells; conditions: 10 zM to 10 aM, 24 hours
Method: “ASO 1M” was evaluated for its ability to down-regulate the TYR protein expression in B16F10 mouse melanoma cells as described below.
B16F10 cells grown in 60 mm culture dish containing 5 mL DMEM were treated with “ASO 1M” at 0 zM (negative control), 10 zM, 100 zM, 1 aM or 10 aM. 24 hours later, cells were washed 2 times with cold PBS (phosphate buffered saline), and then subjected to lysis with 200 μl 1× cell lysis butler (Cat. No. 9803, Cell Signaling Tech) supplemented with 1× protease inhibitors cocktail (Cat. No. P8340, Sigma). 200 μl of each lysate in 1.5 mL e-tube was mixed with […] 5× sample buffer, and boiled at 100° C. for 5 min. 20 μl of the lysate was subjected to electrophoretic separation on a 4-15% gradient TGX gel (Cat No. 456-1086, Bio-Rad), and protein transfer on a 0.45 μm PVDF membrane. The membrane was probed with an anti-TYR antibody (Cat. No. 9319, Cell Signaling Tech) and anti-β-actin antibody (Cat. No. a3845, Sigma).

Substance | Decrease of full-length TYR mRNA level (human TYR mRNA) [%] | Decrease of full-length TYR mRNA level (mouse TYR mRNA) [%] | Exon skipping: PCR products by electrophoresis (mouse TYR pre-mRNA) | Band intensity of TYR expression versus negative control (TYR protein)
Fathoc-CA(5)G-ACA(5)-ATC(1O2)-TG(6)T-A(5)-NH2 (CAGACAATCTGTA; all peptide nucleic acid (PNA), [A(5)] at 2, 6, 13, [C(1O2)] at 9, [G(6)] at 11, 5' {Fethoc}, 3' {NH2}; further chemistry not given here) [ASO 1, 13-mer PNA derivative targeting the 3′ splice site of exon 2 in the human TYR pre-mRNA] | ~30 | – | – | –
Fethoc-CA(5)A-A(5)TG-A(5)TC(1O2)-TG(6)T-G-NH2 (CAAATGATCTGTG; all peptide nucleic acid (PNA), [A(5)] at 2, 4, 7, [C(1O2)] at 9, [G(6)] at 11, 5' {Fethoc}, 3' {NH2}; further chemistry not given here) [ASO 1M, 13-mer PNA derivative targeting the 3′ splice site of exon 2 in the mouse TYR pre-mRNA; surrogate for ASO 1] | – | ~40 | yielded only the splice variant TYR mRNA lacking exons 2 and 3 | considerably weaker

From patent US20230148418A1, “TYROSINASE ANTISENSE OLIGONUCLEOTIDES” (OLIPASS CORPORATION, priority 2017, published 2023)
